Measured values reported in ChEMBL document CHEMBL3885861, “Open TG-GATES”.

Species on record: Rattus norvegicus
Assay: Open TG-GATES - Regimen: Daily Repeat
Assay type: toxicity, organism-based, Sprague-Dawley
Design: regimen Daily Repeat, gender Male, age 6 weeks
Settings: in vivo, po, 0 mg/kg, route gavage, dose level Control; for APTT / Bas / Eos / Fbg / Hb / Ht / Lym / MCH / MCHC / MCV / Mono / Neu / PT / Plat / RBC / Ret / WBC: tissue Blood; for KIDNEY_L / KIDNEY_R / KIDNEY_TOTAL: tissue Kidney; for LIVER: tissue Liver; for A/G / ALP / ALT / AST / BUN / CRE / Ca / Cl / DBIL / GLC / IP / K / LDH / Na / PL / RALB / TBIL / TC / TG / TP / gamma-GTP: tissue Plasma

C[C@H]1O[C@H](O[C@H]2[C@H](O)[C@@H](O)[C@@H](O[C@H]3[C@H](O)[C@@H](O)C(O)O[C@@H]3CO)O[C@@H]2CO)[C@H](O)[C@@H](O)[C@@H]1N[C@H]1C=C(CO)[C@@H](O)[C@H](O)[C@H]1O (some centres not stated) [ACARBOSE]
TERMINAL_BW (72 h, time 3 day): 228.3 g
APTT (72 h, time 3 day): 16.7 s
Bas (72 h, time 3 day): 0%
Eos (72 h, time 3 day): 1.2%
Fbg (72 h, time 3 day): 274.6 mg/dL
Hb (72 h, time 3 day): 13.7 g/dL
Ht (72 h, time 3 day): 41.3%
Lym (72 h, time 3 day): 73.2%
MCH (72 h, time 3 day): 21.7 pg
MCHC (72 h, time 3 day): 33.1%
MCV (72 h, time 3 day): 65.4 fL
Mono (72 h, time 3 day): 3.2%
Neu (72 h, time 3 day): 21.4%
PT (72 h, time 3 day): 13 s
Plat (72 h, time 3 day): 129.5 x10_4/uL
RBC (72 h, time 3 day): 632.2 x10_4/ul
Ret (72 h, time 3 day): 7%
WBC (72 h, time 3 day): 102.7 x10_2/uL
KIDNEY_L (72 h, time 3 day): 1 g
KIDNEY_R (72 h, time 3 day): 1 g
KIDNEY_TOTAL (72 h, time 3 day): 2 g
LIVER (72 h, time 3 day): 10.3 g
A/G (72 h, time 3 day): 0.9
ALP (72 h, time 3 day): 1816 IU/L
ALT (72 h, time 3 day): 42.4 IU/L
AST (72 h, time 3 day): 71 IU/L
BUN (72 h, time 3 day): 14 mg/dL
CRE (72 h, time 3 day): 0.2 mg/dL
Ca (72 h, time 3 day): 10.8 mg/dL
Cl (72 h, time 3 day): 104.2 meq/L
DBIL (72 h, time 3 day): 0.006 mg/dL
GLC (72 h, time 3 day): 173 mg/dL
IP (72 h, time 3 day): 7.5 mg/dL
K (72 h, time 3 day): 4 meq/L
LDH (72 h, time 3 day): 86.2 IU/L
Na (72 h, time 3 day): 140.6 meq/L
PL (72 h, time 3 day): 144.8 mg/dL
RALB (72 h, time 3 day): 2.6 g/dL
TBIL (72 h, time 3 day): 0.054 mg/dL
TC (72 h, time 3 day): 71.6 mg/dL
TG (72 h, time 3 day): 99 mg/dL
TP (72 h, time 3 day): 5.5 g/dL
gamma-GTP (72 h, time 3 day): 1 IU/L
TERMINAL_BW ([…], time 7 day): 273.8 g
TERMINAL_BW ([…], time 14 day): 316.7 g
TERMINAL_BW ([…], time 28 day): 390.9 g
APTT ([…], time 7 day): 18 s
Bas ([…], time 7 day): 0.2%
Eos ([…], time 7 day): 0.8%
Fbg ([…], time 7 day): 296.6 mg/dL
Hb ([…], time 7 day): 13.9 g/dL
Ht ([…], time 7 day): 41.6%
Lym ([…], time 7 day): 77.2%
MCH ([…], time 7 day): 21.3 pg
MCHC ([…], time 7 day): 33.3%
MCV ([…], time 7 day): 63.9 fL
Mono ([…], time 7 day): 2.6%
Neu ([…], time 7 day): 18.6%
PT ([…], time 7 day): 12.8 s
Plat ([…], time 7 day): 129.4 x10_4/uL
RBC ([…], time 7 day): 652.4 x10_4/ul
Ret ([…], time 7 day): 6.5%
WBC ([…], time 7 day): 89.4 x10_2/uL
APTT ([…], time 14 day): 22.2 s
Bas ([…], time 14 day): 0%
Eos ([…], time 14 day): 0.8%
Fbg ([…], time 14 day): 287.8 mg/dL
Hb ([…], time 14 day): 14.6 g/dL
Ht ([…], time 14 day): 43.2%
Lym ([…], time 14 day): 76%
MCH ([…], time 14 day): 20.3 pg
MCHC ([…], time 14 day): 33.8%
MCV ([…], time 14 day): 60.1 fL
Mono ([…], time 14 day): 2%
Neu ([…], time 14 day): 20%
PT ([…], time 14 day): 13.1 s
Plat ([…], time 14 day): 124.4 x10_4/uL
RBC ([…], time 14 day): 720 x10_4/ul
Ret ([…], time 14 day): 4.4%
WBC ([…], time 14 day): 107.6 x10_2/uL
APTT ([…], time 28 day): 20.5 s
Bas ([…], time 28 day): 0%
Eos ([…], time 28 day): 1.6%
Fbg ([…], time 28 day): 283.4 mg/dL
Hb ([…], time 28 day): 15.9 g/dL
Ht ([…], time 28 day): 45.7%
Lym ([…], time 28 day): 79.6%
MCH ([…], time 28 day): 19.9 pg
MCHC ([…], time 28 day): 34.8%
MCV ([…], time 28 day): 57.2 fL
Mono ([…], time 28 day): 2%
Neu ([…], time 28 day): 16.2%
PT ([…], time 28 day): 13.3 s
Plat ([…], time 28 day): 103.4 x10_4/uL
RBC ([…], time 28 day): 799.4 x10_4/ul
Ret ([…], time 28 day): 2.2%
WBC ([…], time 28 day): 93.1 x10_2/uL
KIDNEY_L ([…], time 7 day): 1.1 g
KIDNEY_R ([…], time 7 day): 1.1 g
KIDNEY_TOTAL ([…], time 7 day): 2.3 g
KIDNEY_L ([…], time 14 day): 1.1 g
KIDNEY_R ([…], time 14 day): 1.2 g
KIDNEY_TOTAL ([…], time 14 day): 2.3 g
KIDNEY_L ([…], time 28 day): 1.4 g
KIDNEY_R ([…], time 28 day): 1.3 g
KIDNEY_TOTAL ([…], time 28 day): 2.7 g
LIVER ([…], time 7 day): 13.2 g
LIVER ([…], time 14 day): 13.2 g
LIVER ([…], time 28 day): 15 g
A/G ([…], time 7 day): 0.8
ALP ([…], time 7 day): 1472.4 IU/L
ALT ([…], time 7 day): 38.4 IU/L
AST ([…], time 7 day): 66.6 IU/L
BUN ([…], time 7 day): 16.4 mg/dL
CRE ([…], time 7 day): 0.2 mg/dL
Ca ([…], time 7 day): 11 mg/dL
Cl ([…], time 7 day): 103.6 meq/L
DBIL ([…], time 7 day): 0.004 mg/dL
GLC ([…], time 7 day): 173.8 mg/dL
IP ([…], time 7 day): 8.1 mg/dL
K ([…], time 7 day): 3.8 meq/L
LDH ([…], time 7 day): 83.8 IU/L
Na ([…], time 7 day): 142.4 meq/L
PL ([…], time 7 day): 160.4 mg/dL
RALB ([…], time 7 day): 2.7 g/dL
TBIL ([…], time 7 day): 0.052 mg/dL
TC ([…], time 7 day): 83.2 mg/dL
TG ([…], time 7 day): 115.6 mg/dL
TP ([…], time 7 day): 5.8 g/dL
gamma-GTP ([…], time 7 day): 1 IU/L
A/G ([…], time 14 day): 0.8
ALP ([…], time 14 day): 1741.6 IU/L
ALT ([…], time 14 day): 42.6 IU/L
AST ([…], time 14 day): 72.2 IU/L
BUN ([…], time 14 day): 16 mg/dL
CRE ([…], time 14 day): 0.2 mg/dL
Ca ([…], time 14 day): 10.6 mg/dL
Cl ([…], time 14 day): 105.8 meq/L
DBIL ([…], time 14 day): 0.014 mg/dL
GLC ([…], time 14 day): 188 mg/dL
IP ([…], time 14 day): 6.4 mg/dL
K ([…], time 14 day): 4.1 meq/L
LDH ([…], time 14 day): 74.6 IU/L
Na ([…], time 14 day): 142 meq/L
PL ([…], time 14 day): 161.4 mg/dL
RALB ([…], time 14 day): 2.7 g/dL
TBIL ([…], time 14 day): 0.048 mg/dL
TC ([…], time 14 day): 74.4 mg/dL
TG ([…], time 14 day): 182.4 mg/dL
TP ([…], time 14 day): 6 g/dL
gamma-GTP ([…], time 14 day): 1 IU/L
A/G ([…], time 28 day): 0.8
ALP ([…], time 28 day): 1131.6 IU/L
ALT ([…], time 28 day): 43.4 IU/L
AST ([…], time 28 day): 69.6 IU/L
BUN ([…], time 28 day): 17.2 mg/dL
CRE ([…], time 28 day): 0.2 mg/dL
Ca ([…], time 28 day): 10.8 mg/dL
Cl ([…], time 28 day): 104.4 meq/L
DBIL ([…], time 28 day): 0.014 mg/dL
GLC ([…], time 28 day): 184.8 mg/dL
IP ([…], time 28 day): 6.4 mg/dL
K ([…], time 28 day): 4.2 meq/L
LDH ([…], time 28 day): 121 IU/L
Na ([…], time 28 day): 141.6 meq/L
PL ([…], time 28 day): 146.6 mg/dL
RALB ([…], time 28 day): 2.8 g/dL
TBIL ([…], time 28 day): 0.056 mg/dL
TC ([…], time 28 day): 66.8 mg/dL
TG ([…], time 28 day): 158.2 mg/dL
TP ([…], time 28 day): 6.2 g/dL
gamma-GTP ([…], time 28 day): 1 IU/L
